Source: patent US20240336551A1, “BIODEGRADEBLE MATERIAL MANUFACTURING METHOD AND SYSTEM” (NOROO IC Co., Ltd., priority 2023, published 2024)

How the values were obtained:
[1] = system: microorganisms; experiment: Sterilization experiment, overall conclusion; type: cell-based; conditions: conclusion drawn from Table 1
Description: (§1) Meanwhile, a sterilization experiment was conducted on ethyl 3-HP, a biodegradable material manufactured by the system of the present invention, and the data thereof is shown in Table 1 below. The sterilization experiment was conducted by a test method according to the KCL-FIR-1002:2021 standard.
From the above data, it can be confirmed that […].

[2] = Degree of biodegradability: cumulative amount of CO2 generated over time (FIG. 4)
Text: In describing the present invention, “biodegradable” refers to a definition based on ASTM […]-15 (Standard Test Method for Determination of Aerobic Biodegradation of Plastic Materials Under Controlled Composting Conditions, Incorporating Thermophilic Temperatures). […] This is a much faster biodegradation rate than that of poly (lactic acid) (PLA), which is a biodegradable polymer.

[3] = system: Escherichia coli ATCC 25922; experiment: Sterilization experiment (antimicrobial test, KCL-FIR-1002:2021): Escherichia coli; type: cell-based
Description: as §1

[4] = system: (Bacillus cereus ATCC 11778); experiment: Sterilization experiment (antimicrobial test, KCL-FIR-1002:2021): Bacillus cereus; type: cell-based; conditions: after 24 hours, versus BLANK
Description: as §1

[5] = system: Streptococcus (Bacillus cereus ATCC 11778); experiment: as above; type: cell-based; conditions: initial concentration 3.0*10^4 CFU/ml, BLANK 3.1*10^5
Description: as §1

[6] = system: Staphylococcus aureus ATCC 6538; experiment: Sterilization experiment (antimicrobial test, KCL-FIR-1002:2021): Staphylococcus aureus; type: cell-based
Description: as §1

[7] = system: Streptococcus mutans ATCC 25175; experiment: Sterilization experiment (antimicrobial test, KCL-FIR-1002:2021): Streptococcus mutans; type: cell-based
Description: as §1

[8] = system: MRSA bacteria (Staphylococcus aureus subsp. aureus); experiment: Sterilization experiment (antimicrobial test, KCL-FIR-1002:2021): MRSA bacteria; type: cell-based
Description: as §1

## O=C(O)CCO [3-HP, 3-hydroxy propionate]
[1]
  Bacteriostatic / sterilizing effect: only the bacteriostatic effect and no sterilizing effect
[2]
  Biodegradability compared to PLA: excellent biodegradability compared to PLA

## CCOC(=O)CCO [Ethyl 3-HP, ethyl 3-hydroxypropionate]
[3]; after 24 hours, versus BLANK
  Bacteriostatic reduction rate: 20%
[3]; initial concentration 1.3*10^4 CFU/ml, BLANK 1.5*10^5
  Concentration after 24 hours: 1.2*10^5 CFU/ml
[4]
  Bacteriostatic reduction rate: 45.1%
[5]
  Concentration after 24 hours: 1.7*10^5 CFU/ml
[6]; after 24 hours, versus BLANK
  Bacteriostatic reduction rate: 8.1%
[6]; initial concentration 3.4*10^4 CFU/ml, BLANK 3.7*10^5
  Concentration after 24 hours: 3.4*10^5 CFU/ml
[7]; after 24 hours, versus BLANK
  Bacteriostatic reduction rate: 48.1%
[7]; initial concentration 2.6*10^4 CFU/ml, BLANK 2.7*10^5
  Concentration after 24 hours: 1.4*10^5 CFU/ml
[8]; after 24 hours, versus BLANK
  Bacteriostatic reduction rate: 61.5%
[8]; initial concentration 2.5*10^4 CFU/ml, BLANK 2.6*10^5
  Concentration after 24 hours: 1.0*10^5 CFU/ml
[2]
  Biodegradability compared to PLA: excellent biodegradability compared to PLA
